Where two headings read alike, the source gives them in different places.
How the values were obtained:
AA amyloid = target: T1, AA amyloid (Mus musculus, UniProt P05367); assay: In vivo pre-targeting of ^125I-11-1F4 to systemic AA amyloid; set-up: species or system mice
T1 construct: from tissue; host or cells: organs of living H2-L^d-huIL-6 Tg Balb/c mice after AEF injection
T1 sequence (P05367 20-94 limits assumed): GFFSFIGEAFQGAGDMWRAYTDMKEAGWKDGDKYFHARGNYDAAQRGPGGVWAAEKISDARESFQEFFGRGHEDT
Description: Systemic visceral AA amyloidosis was induced in H2-L^d-huIL-6 Tg Balb/c transgenic mice that constitutively express the human interleukin-6 transgene, by iv injection of 10 μg of purified, splenic AA amyloid (amyloid enhancing factor; AEF) in 100 μL of sterile phosphate-buffered saline (PBS). Peptide p66 pre-targeting of ^125I-11-1F4 was evaluated in mice at 3-4 wk post AEF injection when amyloid load was modest.
Three cohorts of 3 mice, each received ˜400 μg of unlabeled peptide p66, and a second group of 3 cohorts were given peptide p5+14 as a control. Twenty-four hours after the peptide injection all mice were administered ˜150 μCi (˜20 μg) of ^125I-11-1F4 IV in the lateral tail vein. One group of p66 mice (n=3) and one group of p5+14 control mice (n=3) were euthanized at 24, 48 and 72 h post injection of 11-1F4 mAb and the organs harvested at necropsy for fixation, followed by microautoradiographic and immunohistochemical analyses.
For autoradiography, 6-μm-thick sections were cut from formalin-fixed, paraffin-embedded blocks, containing tissues from mice that had received […]. The sections were placed on Plus microscope slides (Fisher Scientific), dipped in NTB-2 emulsion (Eastman Kodak), stored in the dark, and developed after a 4 day exposure. Each section was counterstained with hematoxylin and eosin.
Formalin-fixed paraffin embedded tissue sections, from mice treated with p66 peptope or peptide p5+14 were subjected to antigen retrieval using citrate buffer (pH 6; Dako) 30 min at 90° C. The tissue was then blocked with hydrogen peroxide, casein, and avidin and biotin, per manufacturer's instructions. The biotinylated peptide-reactive mAb (clone 12-3 [described above]) was then added (1.6 μg/mL in PBS) an the samples incubated for 2 h at RT, O/N at 4° C., followed by another 2 h period at RT. […]
The presence of macrophages was detected by staining with mAb Iba-1 (1:8000 diln) followed by addition of biotinylated rabbit anti-mouse secondary reagent (Vector Rabbit Elite kit). […]

mAb 7D8 = assay: Surface plasmon resonance of mAb 7D8 binding to amino-coupled peptopes
Description: Analyses were performed using a BIAcore X surface plasmon resonance instrument (GE Healthcare) and all reagents were obtained from GE Healthcare. For chip preparation, the peptides were attached to CM-5 chips using the amino-coupling method supplied with the instrument software. Briefly, chips were activated by injection (35 μL) of a mixture of ECD/NHS at a flow rate of 5 μL/min. Immediately thereafter, 35 μL of the test peptide (peptope p75, p76, p77, or p78), diluted to 1 μg/mL in NaOAc buffer, pH 5.5, was injected. After peptide coupling, the remaining active groups on the chip were blocked by injection of 35 μL of 1 M ethanolamine-HCl pH 8.5. Test peptides p75, p76, p77, or p78 were coupled to the Fc-1 channel and peptide p5, which served as a control, was coupled to the Fc-2 channel. A sensorgram was initiated on each chip in HBS-EP buffer at 10 μL per min. An initial regeneration step consisting of a 20 μL injection of pH 2.5 glycine buffer was performed and the baseline allowed to equilibrate. Antibody 7D8 was diluted to a stock of 10 μg/mL in HBS-EP buffer which was further diluted to a 0.4 μg/mL (˜2.7 nM) working dilution immediately before injection. The antibody was injected (50 μL) and the data collected for 200 seconds using a delayed wash cycle. The chip was subjected to a regeneration step before the next test injection. Binding data were extracted from the sensorgram, aligned, and analyzed using the BIAevaluation software by fitting to the following binding models (i) Langmuir, (ii) Langmuir with mass transfer, and (iii) Interaction of a bivalent analyte [A+B→AB; AB+B→AB2].

[1] = Langmuir with Mass Transfer, 7D8 2.7 nM

For “KAQKAQAKQAKQAQKAQKAQAKQAKQAQKAQKAQAKQAKQ SVTVVT KHYAAFPENLLI [p66]”, which “co-localization of ^125I-11-1F4 with AA amyloid after peptide pre-targeting” value (AA amyloid; 24 h post injection of 11-1F4 mAb, peptide given 24 h before mAb) is on record?
Its value is “exclusively co-localized with the p66-coated AA amyloid”.

And the “liver macrophage infiltration (Iba-1 staining)” value (AA amyloid; 72 h post injection of 11-1F4 mAb, peptide pre-injected, preliminary data)?
The value was “induced macrophage infiltration into the liver and clustering of macrophages around amyloid deposits to a greater degree”.

What does the source list for “KAQKAQAKQAKQAQKAQKAQAKQAKQAQHEDT [p75, KAQKAQAKQAKQAQKAQKAQAKQAKQAQHEDT]”?
Rmax (RU) (mAb 7D8; Bivalent Analyte, 7D8 2.7 nM): 4.79E+03 RU; ka1 (mAb 7D8; Bivalent Analyte, 7D8 2.7 nM): 85300 M⁻¹ s⁻¹; ka2 (1/RUs) (mAb 7D8; Bivalent Analyte, 7D8 2.7 nM): 8.22E−04 1/RUs; kd1 (mAb 7D8; Bivalent Analyte, 7D8 2.7 nM): 0.0674 s⁻¹; kd2 (mAb 7D8; Bivalent Analyte, 7D8 2.7 nM): 0.0628 s⁻¹; KA (mAb 7D8; [1]): 6.98e+08 M⁻¹; Req (RU) (mAb 7D8; [1]): 500 RU; Rmax (RU) (mAb 7D8; [1]): 765 RU; ka (mAb 7D8; [1]): 5.95e+06 M⁻¹ s⁻¹; kd (mAb 7D8; [1]): 0.00853 s⁻¹; kobs (mAb 7D8; [1]): 0.0246 s⁻¹; kt (RU/(M*s)) (mAb 7D8; [1]): 9.14E+08 RU/(M*s); Kd (mAb 7D8; Langmuir with Mass Transfer, 7D8 2.7 nM, read-out: KD): 1.43 nM; KA (mAb 7D8; Langmuir, 7D8 2.7 nM): 1.59e+08 M⁻¹; Req (RU) (mAb 7D8; Langmuir, 7D8 2.7 nM): 654 RU; Rmax (RU) (mAb 7D8; Langmuir, 7D8 2.7 nM): 2.18E+03 RU; ka (mAb 7D8; Langmuir, 7D8 2.7 nM): 369000 M⁻¹ s⁻¹; kd (mAb 7D8; Langmuir, 7D8 2.7 nM): 0.00233 s⁻¹; kobs (mAb 7D8; Langmuir, 7D8 2.7 nM): 0.00333 s⁻¹; Kd (mAb 7D8; Langmuir, 7D8 2.7 nM, read-out: KD): 6.3 nM; binding kinetics relative to the other peptopes (mAb 7D8; surface plasmon resonance): slow and reduced off-rate; Kd (mAb 7D8; text summary of surface plasmon resonance measurements, read-out: dissociation constants (KD)): 1 to 5 nM

Reference: US10046050B2, “Targeting immunotherapy for amyloidosis” (UNIVERSITY OF TENNESSEE RESEARCH FOUNDATION, priority 2014, dated 2018)
